We go through 4 compounds from PubChem BioAssay (NCI).

Test systems include XF 498 CNS; KM20L2 colon; DMS 273 small cell lung; HOP-18 NSCLC; M19-MEL melanoma; MDA-MB-435; NCI/ADR-RES ovarian; DU-145 prostate; BT-549 breast.
Test in all cases: NCI anticancer screen, dose series, 48 h

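In this assay, cells in 96-well plates receive the compound at five concentrations for 48 hours. Endpoints are linearly interpolated between the surrounding concentrations. GI50: concentration for 50% inhibition of growth. TGI marks complete inhibition of growth.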

Consider `C/C(=N\NC(=S)Nc1ccc([N+](=O)[O-])cc1S(=O)(=O)O)c1ccccn1`, for which the TGI was 78.7 µM in the experiment with XF 498 CNS; 67.2 µM in the experiment on KM20L2 colon; above 100 µM with DMS 273 small cell lung; above 100 µM in the experiment on HOP-18 NSCLC; above 100 µM with M19-MEL melanoma.

On to `O=C(O)C(O)C(O)C1[O][Sb][O]C1CO` (stereo not drawn), for which the GI50 in the experiment with MDA-MB-435, in the experiment on NCI/ADR-RES ovarian, in the experiment with XF 498 CNS, with KM20L2 colon, with DU-145 prostate and in the experiment with DMS 273 small cell lung was above 100 µM each time. Besides, the figures for the GI50 with BT-549 breast, in the experiment with HOP-18 NSCLC and in the experiment with M19-MEL melanoma were above 100 µM, above 100 µM and 9.07 µM, respectively. In addition, the TGI in the experiment with MDA-MB-435, with NCI/ADR-RES ovarian, in the experiment with XF 498 CNS, with KM20L2 colon, with DU-145 prostate and in the experiment on DMS 273 small cell lung was above 100 µM throughout. Further, the TGI is above 100 µM in the experiment with BT-549 breast, above 100 µM in the experiment on HOP-18 NSCLC and 31 µM with M19-MEL melanoma.

In the case of `OCC1CC2CC1C1(C2)OCCO1` (stereo not drawn), the TGI in the experiment on XF 498 CNS, in the experiment on KM20L2 colon, in the experiment on DMS 273 small cell lung, in the experiment on HOP-18 NSCLC and in the experiment on M19-MEL melanoma was above 100 µM each time.

As to `COC(=N)/C(=C1\OC(N)=C(c2ccc(Cl)cc2)C1=O)c1ccc(Cl)cc1`, the TGI in the experiment with XF 498 CNS, in the experiment with KM20L2 colon, in the experiment on DMS 273 small cell lung, with HOP-18 NSCLC and in the experiment on M19-MEL melanoma was above 100 µM each time.
